SMILES strings stand for the structures. Read-outs that look alike come from different tables or passages of the source.

In one series the test system is HEK293T. In words: Specificity: mammalian cell cytotoxicity / inhibition of bacteria growth (CC50/IC50).
In series [1] the test system is A. baumannii HUMC1. In words: IC50 dose response, inhibition of bacterial growth (BacTiter-Glo viability). In kind it is cell-based, Acinetobacter baumannii. To be noted: 11-point dose response, read-out: IC50.
The subject of a further series is A. baumannii ATCC 17978. The description is as above. To be noted: 11-point dose response, read-out: IC50. It is filed as cell-based, Acinetobacter baumannii.
Series [2] relates to A. baumannii HUMC1. Nature of the series: MIC, broth microdilution in MHII, RPMI or modified media. In kind it is cell-based, Acinetobacter baumannii. To be noted: inhibitor alone.
Setting [3] is: IC50 vs A. baumannii ATCC 17978, RPMI + 50% serum.
[4] abbreviates: IC50 vs A. baumannii ATCC 17978, RPMI alone.
The mark [5] stands for this setting: IC50 vs A. baumannii HUMC1, RPMI + 50% serum.
The mark [6] stands for this setting: IC50 vs A. baumannii HUMC1, RPMI alone.
[7] abbreviates: Acinetobacter baumannii, HUMC1, 24 h, HUMC1, RPMI + 50% Serum.
Setting [8] is: Acinetobacter baumannii, HUMC1, HUMC1, RPMI + 50% Serum.
The mark [9] stands for this setting: Acinetobacter baumannii, HUMC1, HUMC1, RPMI.
Where [10] appears, read: Acinetobacter baumannii, ATCC17978, 24 h, ATCC 17978, RPMI + 50% Serum.
The mark [11] stands for this setting: Acinetobacter baumannii, ATCC17978, ATCC 17978, RPMI + 50% Serum.
[12] abbreviates: Acinetobacter baumannii, ATCC17978, ATCC 17978, RPMI.

Take `CO[C@H]1/C=C/O[C@@]2(C)Oc3c(C)c(O)c4c(O)c(c(/C=N/N=C/N5CCCCC5)c(O)c4c3C2=O)NC(=O)/C(C)=C\C=C\[C@H](C)[C@H](O)[C@@H](C)[C@@H](O)[C@@H](C)[C@H](OC(C)=O)[C@@H]1C` [FCE-22250]: the “Specificity HEK293T (CC50/IC50)” value in the series with HEK293T (setting [3]) was 0.950; in the series on HEK293T (setting [4]) it was 3.441; in the series on HEK293T (setting [5]), 1.545; with HEK293T (setting [6]) it was 3.710. Further, the IC50 in the series with A. baumannii HUMC1 [1] (HUMC1, RPMI + 50% Serum) stood at 21.7 µM; in the series with A. baumannii HUMC1 [1] (HUMC1, RPMI), 9.03 µM; in the series on A. baumannii ATCC 17978 (ATCC 17978, RPMI + 50% Serum) it was 35.3 µM; in the series with A. baumannii ATCC 17978 (ATCC 17978, RPMI) it was 9.74 µM.

On to `CO[C@H]1/C=C/O[C@@]2(C)Oc3c(C)c([O-])c4c(O)c(cc(O)c4c3C2=O)NC(=O)/C(C)=C\C=C\[C@H](C)[C@H](O)[C@@H](C)[C@@H](O)[C@@H](C)[C@H](OC(C)=O)[C@@H]1C.[Na+]` [rifamycin SV], for which the “Specificity HEK293T (CC50/IC50)” value in the series on HEK293T (setting [3]) worked out at 1.000; in the series on HEK293T (setting [4]), 1.108; in the series with HEK293T (setting [5]) it was 1.000; in the series with HEK293T (setting [6]), 1.348. The IC50 turned out to be 50 µM in the series with A. baumannii HUMC1 [1] (HUMC1, RPMI + 50% Serum); 37.1 µM with A. baumannii HUMC1 [1] (HUMC1, RPMI); 50 µM in the series on A. baumannii ATCC 17978 (ATCC 17978, RPMI + 50% Serum); 45.1 µM in the series with A. baumannii ATCC 17978 (ATCC 17978, RPMI).

Consider `N#CC(C#N)=NNc1cccc(Cl)c1` [CCCP], for which the “MIC of efflux pump inhibitor alone” value with A. baumannii HUMC1 [2] (HUMC1) is 8 µg/mL.

As to `CSc1ccc2c(c1)N(CCC1CCCCN1C)c1ccccc1S2` (stereo not drawn) [thioridazine], the MIC with A. baumannii HUMC1 [2] (Acinetobacter baumannii, HUMC1, HUMC1, read-out: MIC of efflux pump inhibitor alone) worked out at 64 µg/mL.

`CO[C@H]1/C=C/O[C@@]2(C)Oc3c(C)c(O)c4c(O)c(cc(O)c4c3C2=O)NC(=O)/C(C)=C\C=C\[C@H](C)[C@H](O)[C@@H](C)[C@@H](O)[C@@H](C)[C@H](OC(C)=O)[C@@H]1C` [rifamycin]: the “Specificity HEK293T (CC50/IC50)” value with HEK293T (setting [3]) amounted to 0.412; in the series with HEK293T (setting [4]), 0.478; in the series with HEK293T (setting [5]) it was 0.383; with HEK293T (setting [6]) it was 0.654. Further, the IC50 in the series with A. baumannii HUMC1 [1] (setting [7]) is 35.4 µM; in the series with A. baumannii HUMC1 [1] (setting [8]) it was 35.4 µM; in the series with A. baumannii HUMC1 [1] (setting [9]), 20.8 µM; in the series with A. baumannii ATCC 17978 (setting [10]) it was 33 µM; in the series with A. baumannii ATCC 17978 (setting [11]) it was 33 µM; in the series with A. baumannii ATCC 17978 (setting [12]), 28.4 µM.

As to `CO[C@H]1/C=C/O[C@@]2(C)Oc3c(C)c(O)c4c(=O)c(c5oc6cc(N7CCN(CC(C)C)CC7)cc(O)c6nc-5c4c3C2=O)NC(=O)/C(C)=C\C=C\[C@H](C)[C@H](O)[C@@H](C)[C@@H](O)[C@@H](C)[C@H](OC(C)=O)[C@@H]1C` [rifalazil], the “Specificity HEK293T (CC50/IC50)” value in the series on HEK293T (setting [3]) worked out at 0.609; with HEK293T (setting [4]), 1.752; in the series on HEK293T (setting [5]) it was 4.055; with HEK293T (setting [6]), 1.523. Moreover, the IC50 in the series on A. baumannii HUMC1 [1] (setting [7]) was found to be 7.51 µM; with A. baumannii HUMC1 [1] (setting [8]), 7.51 µM; in the series on A. baumannii HUMC1 [1] (setting [9]), 20 µM; with A. baumannii ATCC 17978 (setting [11]), 50 µM; in the series with A. baumannii ATCC 17978 (setting [12]), 17.4 µM.

As to `CO[C@H]1/C=C/O[C@@]2(C)Oc3c(C)c(O)c4c(O)c(c(/C=N/N5CCN(C6CCCC6)CC5)c(O)c4c3C2=O)NC(=O)/C(C)=C\C=C\[C@H](C)[C@H](O)[C@@H](C)[C@@H](O)[C@@H](C)[C@H](OC(C)=O)[C@@H]1C` [rifapentine], the “Specificity HEK293T (CC50/IC50)” value in the series on HEK293T (setting [3]) was 1.222; in the series on HEK293T (setting [4]) it was 4.517; in the series with HEK293T (setting [5]), 3.148; in the series on HEK293T (setting [6]) it was 3.413. Moreover, the IC50 in the series with A. baumannii HUMC1 [1] (setting [7]) is 10.9 µM; in the series with A. baumannii HUMC1 [1] (setting [8]), 10.9 µM; with A. baumannii HUMC1 [1] (setting [9]), 10 µM; in the series on A. baumannii ATCC 17978 (setting [10]) it was 28.1 µM; in the series with A. baumannii ATCC 17978 (setting [11]) it was 28.1 µM; in the series on A. baumannii ATCC 17978 (setting [12]), 7.59 µM.

With `CO[C@H]1/C=C/O[C@@]2(C)Oc3c(C)c(O)c4c(O)c(c5c(nc6cc(C)ccn65)c4c3C2=O)NC(=O)/C(C)=C\C=C\[C@H](C)[C@H](O)[C@@H](C)[C@@H](O)[C@@H](C)[C@H](OC(C)=O)[C@@H]1C` [rifaximin], the “Specificity HEK293T (CC50/IC50)” value is 20.421 in the series with HEK293T (setting [3]), 28.143 in the series with HEK293T (setting [4]), 31.517 in the series on HEK293T (setting [5]) and 32.776 in the series on HEK293T (setting [6]). Further, the IC50 with A. baumannii HUMC1 [1] (setting [7]) came out at 1.59 µM; in the series on A. baumannii HUMC1 [1] (setting [8]), 1.59 µM; in the series on A. baumannii HUMC1 [1] (setting [9]), 1.53 µM; with A. baumannii ATCC 17978 (setting [10]) it was 2.45 µM; in the series with A. baumannii ATCC 17978 (setting [11]) it was 2.45 µM; with A. baumannii ATCC 17978 (setting [12]), 1.78 µM.

The record behind these values is patent US20230381157A1, “RIFABUTIN FOR THE TREATMENT OF ACINETOBACTER BAUMANNII” (University of Southern California, priority 2018, published 2023).
